Experimental data reported in US10226509B2, “Lymphangiogenesis inhibitors for cancer and for graft survival” (TUFTS UNIVERSITY, priority 2014, dated 2019).
Entries after “also recorded” stand apart in the source; their conditions may differ.

Columns and labels:
LEC spheroids = assay: LEC sprouting assay: stimulation by galectins alone; assay type: cell-based, human
Description: (§1) LEC spheroids were generated by seeding primary LECs at passage 4 or 5 in each well of 384-well hanging-drop plates (3D Biomatrix) in complete EGM-2 MV medium containing 0.25% methyl cellulose according to the manufacturer's instructions (750 cells/well). After 18 hours, LEC spheroids were collected, resuspended in serum-free EBM-2 basal medium, and mixed with collagen solution (PureCol collagen, Advanced BioMatrix, 2.2 mg/ml in M199 medium, pH adjusted to 7.4 with NaHCO3 and NaOH). Aliquots of the LEC spheroid/collagen mixture (250 μl/well of 48-well plate) were incubated in the presence or absence of various test agents for 24 hr. At the end of the incubation period, spheroids were stained with Calcein AM (Invitrogen, 1 μg/mL, 37° C., and 30 min). Fluorescent images were acquired using the EVOS FL cell imaging system, pixels were inverted for better visualization and cumulative length of each sprout was calculated. Results were expressed as fold change compared to corresponding controls. It was observed that sprout lengths vary from passages to passages. Test agents used included thiodigalactoside (10 to 50 mM, Carbosynth), 3′-sialyl lactose (2 to 10 mM, Carbosynth), 6′-sialyl lactose (2 to 10 mM, Carbosynth), LY294002 (20 μM, Abeam), U0126 (20 μM, Abeam), PD0325901 (1 μM, Selleckchem), human VEGFR-3-Fc chimera (10 μg/ml, R&D), human VEGFR-2-Fc chimera (10 μg/ml, R&D), Avastin (10 μg/ml, bevacizumab, Genentech/Roche), human control IgG (10 μg/ml, Southern Biotech), anti-human podoplanin functional grade antibody (10 μg/ml, eBioscience), and rat IgG2a κ isotype control functional grade antibody (10 μg/ml, eBioscience).
To assess the effect of galectins on LEC sprouting, LEC spheroids were embedded in a collagen matrix and incubated with media containing various test agents. After 24 hours, the cumulative length of the sprouts for each spheroid was quantified by ImageJ. […] Multiple approaches were used to determine whether the stimulatory effect of Gal-8 on LEC sprouting was carbohydrate-dependent.

[1] = tested on: VEGF-C-induced LEC sprouting; assay: LEC sprouting assay: VEGF-C-induced sprouting; assay type: cell-based, human
Description: as §1
In this assay, the LEC spheroids were treated with VEGF-C (50 ng/ml) in the presence or absence of 0.75 μM of Gal-8 for 24 hours, and then accumulated sprout lengths were quantified. […] Synergistic effect of Gal-8 on VEGF-C-induced LEC sprouting was dose-dependent. […] At concentrations >0.5 μM Gal-8, there was no further increase in the degree of VEGF-C-induced lymphangiogenesis (FIG. 4C).
To further characterize the role of carbohydrate-mediated recognition in VEGF-C-induced lymphangiogenesis, LEC spheroids were stimulated with VEGF-C (50 ng/ml) in the presence or absence of three different galectin inhibitors. […] Therefore, the data establishes the critical role of Gal-8-mediated carbohydrate-mediated recognition in VEGF-C-induced lymphangiogenesis.

mouse corneas = assay: Corneal mouse micropocket lymphangiogenesis assay; assay type: in vivo; conditions: for mean lymphatic vessel areas: 160 ng pellet, seven days
Description: The corneal micropocket lymphangiogenesis assay was performed using implants containing a test agent, hydron (polyhydroxylmethylmethacrylate), and sucralfate (Cao, R., et al. 2011. Nat Protoc 6:817-826; Rogers, M. S., et al. 2007. Nat Protoc 2:2545-2550). Test agents included full-length Gal-8 (40-320 ng/pellet) and VEGF-C (160 ng/pellet). Implants containing hydron and sucralfate alone served as negative controls. The mice were anesthetized by intraperitoneal injection of a mixture of ketamine (90-120 mg/kg) and xylazine (10 mg/kg). The eyes were topically anesthetized with proparacaine and were gently proptosed (forwardly displaced) with forceps. Using a corneal blade and a stereoscope, intrastromal linear keratotomy was performed about 2 mm from the limbus. Using a von Graefe knife (Miltex), a pocket was extended towards the limbus, and the pellet was maneuvered into the pocket. The wound was coated with a veterinary ophthalmic ointment (Akorn) to prevent infection. Mouse corneas were harvested 7 days after pellet implantation, fixed in 4% paraformaldehyde/PBS (1 hour at 4° C.), washed with PBS, and fixed again in iced acetone (15 min at −20° C.). To quantitate the extent of lymphangiogenesis in Prox-1-EGFP reporter mice, flat mounts of the dissected corneas were evaluated by fluorescence microscopy. Fluorescent images were acquired by EVOS FL cell imaging system (Invitrogen), and vessel areas were calculated using the formula (Rogers, M. S., et al. 2007. Nat Protoc 2:2545-2550): vessel area=pellet distance×vessel length×clock hours×[…]. To quantitate the extent of lymphangiogenesis in WT and PDPN-deficient mice, corneas were stained with eFluor 570-anti-mouse LYVE-1 (clone ALY7, eBioScience, and 1:75) in 10% goat serum/0.2% Triton X-100/PBS overnight, 4° C. After several washes with 0.2% Triton X-100/PBS, the corneas were flattened and mounted with VECTASHIELD mounting medium (Vector Laboratories) and evaluated by fluorescence microscopy. In some examples, for comparisons, corneas were stained with Alexa Fluor® 488-anti-mouse CD31 (clone MEC13.3, 1:100, BioLegend) to visualize blood vessels.

EC50 (LEC spheroids; sprouting activity at 0.75 μM set at 100%, read-out: EC50 of galectin-8-mediated LEC sprouting): 520 nM
Substance: Gal-8: recombinant galectin-8, tandem-repeat type galectin with two different CRDs
promotion of LEC sprouting by the agent alone (in words) (LEC spheroids; 24 hours): concentration-dependent and was comparable to that of VEGF-C; also recorded: promotes LEC sprouting | Hill's coefficient (nH) of galectin-8-mediated LEC sprouting (LEC spheroids; dose-response curve): 3.7 | VEGF-C-induced LEC sprouting, times higher than VEGF-C alone or Gal-8 alone ([1]; VEGF-C 50 ng/ml plus 0.75 μM of Gal-8): 5 times | effect on VEGF-C-induced LEC sprouting (in words) ([1]; VEGF-C 50 ng/ml, 24 h): markedly enhanced | mean lymphatic vessel areas (mouse corneas; PDPN KO mice): 0.28 mm^2 | mean lymphatic vessel areas (mouse corneas; WT mice): 0.78 mm^2 | lymphatic vessel growth, times higher than either VEGF-C pellet or Gal-8 pellet alone (mouse corneas; corneas implanted with both VEGF-C and Gal-8 pellets): 2.2 times | lymphangiogenesis induced by pellet in cornea (in words) (mouse corneas; one week after implantation, Gal-8 40-320 ng/pellet, VEGF-C 160 ng, WT or Prox1-EGFP mice): increased in a dose-dependent manner | effect of Gal-8 pellet on VEGF-C-induced lymphangiogenesis in vivo (in words) (mouse corneas; two separate pellets (VEGF-C and Gal-8), Prox1-EGFP reporter mice, one week): augmented VEGF-C-induced lymphangiogenesis
